Data on 3 molecules can be found in PMC8069832, “New Amides and Phosphoramidates Containing Selenium: Studies on Their Cytotoxicity and Antioxidant Activities in Breast Cancer” (Antioxidants, 2021).

Like-named read-outs stand apart in the source and are kept apart here.

One data set deals with HT-29. Put plainly: cells. The settings on record: Homo sapiens, HT-29, 48 h; for activity at 10 µM: read-out: Cell growth (%) HT-29; for GI50: read-out: GI50 HT-29; for CC50: read-out: LC50 HT-29; for IC (TGI): read-out: TGI HT-29.
Data set [1] can be described thus: MTT cytotoxicity in nonmalignant mammary gland derived cells. Type of data set: cell-based. The note with it: human. The method in brief: (§1)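 184B5 cells grown in supplemented DMEM/F12, BEAS-2B in RPMI with 10% FBS. 1 × 10^4 cells/well exposed to increasing compound concentrations for 48 h at 37 °C, 5% CO2, then MTT 4 h and formazan dissolved in DMSO. At least 3 independent experiments in quadruplicate; cisplatin as reference.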

The test system of the next data set is 184B5. The data set is described as above. Type of data set: cell-based. The settings on record: for GI50 / IC (TGI): Homo sapiens; for GI50: read-out: GI50 184B5; for IC (TGI): read-out: TGI 184B5. The essentials:
as §1

The subject of another data set is PC-3. Put plainly: cells. Type of data set: cell-based. The settings on record: Homo sapiens; for LC50: read-out: LC50 PC-3; for GI50: read-out: GI50 PC-3; for IC (TGI): read-out: TGI PC-3. The essentials: (§2)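 MTT cytotoxicity: 1 × 10^4 cells/well in RPMI + 10% FBS exposed to increasing compound concentrations for 48 h at 37 °C, 5% CO2, then MTT for 4 h and formazan dissolved in DMSO. Initial screen at 50 and 10 µM; at least 3 independent experiments in quadruplicate, SEM reported.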

Another data set relates to HTB-54. The experiment in a line: cells. Type of data set: cell-based. The settings on record: Homo sapiens; for CC50: read-out: LC50 HTB54; for GI50: read-out: GI50 HTB54; for IC (TGI): read-out: TGI HTB54. The method in brief: as §2
The nature of data set [2]: DPPH radical scavenging assay. The note with it: 0.03 mg/mL, after 30 min.
A further data set deals with MCF-7. The settings on record: read-out: GI50 MCF-7; 48 h, average ± SEM.
Where [3] appears, read: 184B5, nonmalignant cells, 48 h.
Setting [4] is: nonmalignant cells, 48 h, read-out: LC50 184B5.

Take `O=C(Nc1ccc([Se][Se]c2ccc(NC(=O)c3ccc(C(F)(F)F)cc3)cc2)cc1)c1ccc(C(F)(F)F)cc1` [I.1f]: the activity at 10 µM in the data set with HT-29 is -18.4%. Moreover, the GI50 came to 0.1 µM with HT-29; 6.59 µM with 184B5 (setting [3]); 1.2 ± 1.5 µM with PC-3 (PC-3, 48 h, average ± SEM); 25.1 ± 3.1 µM in the data set on HTB-54 (HTB-54, 48 h, average ± SEM). For the same molecule, the CC50 with HT-29 was > 100 µM; with HTB-54 (HTB-54, 48 h), 75.4 ± 1.7 µM. The IC (TGI) is 5.7 ± 0.9 µM in the data set on HT-29; 44 µM in the data set with 184B5 (setting [3]); 32.9 ± 3.1 µM with PC-3 (PC-3, 48 h, average ± SEM); 50.2 ± 2.4 µM in the data set on HTB-54 (HTB-54, 48 h, average ± SEM). Moreover, in data set [1], the LC50 (50% lethal concentration) at 48 h amounted to 92.3 µM. For the same molecule, in the data set with PC-3 (PC-3, 48 h), the LC50 was found to be 65 ± 0.6 µM.

For the molecule `N#C[Se]c1ccc(NC(=O)c2ccc(C(F)(F)F)cc2)cc1` [I.2f], in the data set on HT-29, the activity at 10 µM worked out at 26.7%, the GI50 amounted to 0.6 ± 0.4 µM, the CC50 is > 100 µM and the IC (TGI) worked out at 79.2 ± 0.3 µM. Further, the LC50 (50% lethal concentration) in data set [1] (setting [4]) was > 100 µM. Also, in the data set with 184B5 (setting [3]), the GI50 was determined as 16.6 µM and the IC (TGI) is > 100 µM. The DPPH activity inhibition entry in data set [2] is listed as “greater than 35%”. Further, in the data set with PC-3 (PC-3, 48 h, average ± SEM), the GI50 stood at 28.5 ± 0.7 µM, the LC50 was 77.7 ± 0.6 µM and the IC (TGI) is 53.1 ± 0.6 µM. Besides, in the data set with HTB-54 (HTB-54, 48 h, average ± SEM), the GI50 worked out at 29.8 ± 1.5 µM, the CC50 turned out to be 84.4 ± 5.2 µM and the IC (TGI) was found to be 57.1 ± 3.3 µM. Further, the concentration for 50% growth inhibition (GI50) in the data set on MCF-7 came to 0.9 µM.

Consider `CCOP(=O)(Nc1ccc([Se]C#N)cc1)OCC` [II.2d], for which the activity at 10 µM in the data set on HT-29 was -63.4%. For the same molecule, the GI50 with HT-29 stood at 5 ± 0.8 µM; with 184B5 (184B5, 48 h) it was 5.7 µM; with PC-3 (PC-3, 48 h), 1.9 ± 0.1 µM; in the data set on HTB-54 (HTB-54, 48 h), 1.6 ± 0.4 µM; in the data set with MCF-7, 0.9 ± 0.1 µM. Moreover, the CC50 with HT-29 is 9.5 ± 0.4 µM; with HTB-54 (HTB-54, 48 h), 4.8 ± 0.2 µM. Further, the IC (TGI) with HT-29 amounted to 7.3 ± 0.2 µM; with 184B5 (184B5, 48 h), 7.31 µM; with PC-3 (PC-3, 48 h), 4.4 ± 0.1 µM; in the data set on HTB-54 (HTB-54, 48 h) it was 3.2 ± 0.3 µM. The CC50 at 48 h in data set [1] (setting [4]) amounted to 8.93 µM. The “Selectivity index (SI) = GI50 (184B5)/GI50 (MCF-7)” value with 184B5 (breast) is given as 6.33. For the same molecule, in the data set with PC-3 (PC-3, 48 h), the LC50 came to 99.9 ± 9.5 µM.
